Some results are limits rather than exact numbers.

In one experiment the target is T1, PDE5A1 (Homo sapiens, UniProt O76074).
T1 construct: from tissue; host or cells: human platelets from fresh donor blood (10,000 x g supernatant of sonicated lysate)
The experiment can be described thus: Inhibition of type 5 phosphodiesterase (PDE5) activity, modified SPA test with human platelet lysate. In kind it is biochemical. The settings on record: 0.5 μM cGMP, read-out: PDE5A1 inhibitory values [measured as −log IC50 (mol/l)] (converted). Summed up: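 Enzyme source is lysate from human platelets (10,000 g supernatant). Compound preincubated 5 min at 37° C in Tris pH 7.4 containing 1 μM motapizone and 10 nM of a PDE2 inhibitor. Reaction started with 0.5 μM cGMP ([3H] tracer) and run 15 min; SPA read-out, IC50 by non-linear regression.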

Another experiment deals with T2, PDE4B1 (Homo sapiens, UniProt Q07343).
T2 construct: made in house; host or cells: SF21 insect cells (baculovirus; pCRBac vector), 1000 x g supernatant of homogenate
T2 sequence (Q07343 whole entry): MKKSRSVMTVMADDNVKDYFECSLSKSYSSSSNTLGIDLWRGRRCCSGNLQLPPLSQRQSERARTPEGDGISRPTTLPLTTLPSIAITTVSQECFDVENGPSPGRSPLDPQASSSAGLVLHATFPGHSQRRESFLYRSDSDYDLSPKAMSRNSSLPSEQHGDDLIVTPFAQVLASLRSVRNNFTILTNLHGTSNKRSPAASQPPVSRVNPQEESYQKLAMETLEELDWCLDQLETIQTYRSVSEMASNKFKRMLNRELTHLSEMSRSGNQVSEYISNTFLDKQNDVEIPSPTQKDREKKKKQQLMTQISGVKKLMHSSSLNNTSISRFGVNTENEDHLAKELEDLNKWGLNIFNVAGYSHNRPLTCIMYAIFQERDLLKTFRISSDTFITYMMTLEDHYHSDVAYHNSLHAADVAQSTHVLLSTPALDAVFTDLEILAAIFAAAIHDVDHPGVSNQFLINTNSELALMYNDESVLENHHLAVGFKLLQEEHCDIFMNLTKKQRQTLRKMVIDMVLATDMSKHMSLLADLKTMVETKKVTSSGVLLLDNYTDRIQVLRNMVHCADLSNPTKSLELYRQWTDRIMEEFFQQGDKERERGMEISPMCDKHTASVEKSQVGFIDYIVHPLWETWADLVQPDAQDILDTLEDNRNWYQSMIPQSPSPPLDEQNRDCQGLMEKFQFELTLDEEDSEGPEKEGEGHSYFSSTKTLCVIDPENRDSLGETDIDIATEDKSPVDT
Kind of experiment: Inhibition of type 4 phosphodiesterase (PDE4) activity, modified SPA test with recombinant PDE4B1 expressed in SF21 insect cells. The class given is biochemical. The settings on record: recombinant PDE4B1, 0.5 μM cAMP, read-out: PDE4B1 inhibitory values [measured as −log IC50 (mol/l)] (converted). The protocol: Method for Measuring Inhibition of the Type 4 Phosphodiesterase (PDE4) Activity:
The PDE4B1 (GB no. L20966) was a gift of Prof. M. Conti (Stanford University, USA). It was amplified from the original plasmid (pCMV5) via PCR with primers Rb18 (5′-[…]-3′) and Rb10 (5′-[…]-3′) and cloned into the pCRBac vector (Invitrogen, Groningen, NL).
The recombinant baculovirus was prepared by means of homologous recombination in SF9 insect cells. The expression plasmids were cotransfected with Baculo-Gold DNA (Pharmingen, Hamburg) using a standard protocol (Pharmingen, Hamburg). Wt virus-free recombinant virus supernatants were selected using plaque assay methods. After that, high-titre virus supernatants were prepared by amplifying 3 times. PDE4B1 was expressed in SF21 cells by infecting 2×10^6 cells/ml with an MOI (multiplicity of infection) between 1 and 10 in the serum-free medium Insect Express Sf9-S2 (PAA, Pasching, Austria). The cells were cultured at 28° C. for 48-72 hours, after which they were pelleted for 5-10 min at 1000×g and 4° C.
The SF21 insect cells were resuspended, at a concentration of approx. 10^7 cells/ml, in ice-cold (4° C.) homogenization buffer (20 mM Tris, pH 8.2, containing the following additions: 140 mM NaCl, 3.8 mM KCl, 1 mM EGTA, 1 mM MgCl2, 10 mM (3-mercaptoethanol, 2 mM benzamidine, 0.4 mM Pefablock, 10 μM leupeptin, 10 μM pepstatin A, 5 μM trypsin inhibitor) and disrupted by ultrasonication. The homogenate was then centrifuged for 10 min at 1000×g and the supernatant was stored at −80° C. until subsequent use (see below). The protein content was determined by the Bradford method (BioRad, Munich) using BSA as the standard.
PDE4B1 activity was inhibited by the compounds according to the present subject matter in a modified SPA (scintillation proximity assay) test, supplied by Amersham Biosciences (see procedural instructions “phosphodiesterase [3H]cAMP SPA enzyme assay, code TRKQ 7090”), carried out in 96-well microtitre plates (MTP's). The test volume is 100 μl and contains 20 mM Tris buffer (pH 7.4), 0.1 mg/ml of BSA, 5 mM Mg^2+, 0.5 μM cAMP (including about 50,000 cpm of [3H]cAMP), 1 μl of the respective substance dilution in DMSO and sufficient recombinant PDE (1000×g supernatant, see above) to ensure that 10-20% of the cAMP is converted under the said experimental conditions. […] After a preincubation of 5 min at 37° C., the reaction is started by adding the substrate (cAMP) and the assays are incubated for a further 15 min; after that, they are stopped by adding SPA beads (50 μl). In accordance with the manufacturer's instructions, the SPA beads had previously been resuspended in water, but were then diluted 1:3 (v/v) in water; the diluted solution also contains 3 mM IBMX to ensure a complete PDE activity stop. After the beads have been sedimented (>30 min), the MTP's are analyzed in commercially available luminescence detection devices. The corresponding IC50 values of the compounds for the inhibition of PDE4B1 activity are determined from the concentration-effect curves by means of non-linear regression.

Regarding `COCC(=O)N[C@H]1CC[C@H](NC(=O)c2c(C)[nH]c3c(-c4cc(C(F)F)ccc4OCC4CC4)ncnc23)[C@H](F)C1` (relative stereo) [Example P171, 4-[2-(Cyclopropylmethoxy)-5-(difluoromethyl)phenyl]-N-{(1S*,2R*,4S*)-2-fluoro-4-[(methoxyacetyl)amino]cyclohexyl}-6-methyl-5H-pyrrolo[3,2-d]pyrimidine-7-carboxamide], the IC50 on PDE5A1 is under 0.001 µM; on PDE4B1 it was under 0.1 µM.

Consider `COCC(=O)N[C@H]1CC[C@H](NC(=O)c2c(C)[nH]c3c(-c4cc(C(F)F)ccc4OCC4CC4)ncnc23)C[C@@H]1C` (relative stereo) [Example P191, 4-[2-(Cyclopropylmethoxy)-5-(difluoromethyl)phenyl]-N-{(1S*,3S*,4S*)-4-[(methoxyacetyl)amino]-3-methylcyclohexyl}-6-methyl-5H-pyrrolo[3,2-d]pyrimidine-7-carboxamide], for which the IC50 at PDE5A1 was under 0.001 µM; at PDE4B1 it was under 0.1 µM.

In the case of `CC(=O)N[C@H]1CC[C@H](NC(=O)c2c(C)[nH]c3c(-c4cc(C(F)F)ccc4OCC4CC4)ncnc23)C[C@H]1F` (relative stereo) [Example P199, N-[(1S*,3R*,4S*)-4-(Acetylamino)-3-fluorocyclohexyl]-4-[2-(cyclopropylmethoxy)-5-(difluoromethyl)phenyl]-6-methyl-5H-pyrrolo[3,2-d]pyrimidine-7-carboxamide], the IC50 was under 0.001 µM at PDE5A1 and under 0.1 µM on PDE4B1.

As to `CCC(=O)N[C@H]1CC[C@H](NC(=O)c2c(C)[nH]c3c(-c4cc(C(F)F)ccc4OCC4CC4)ncnc23)C[C@H]1F` (relative stereo) [Example P200, 4-[2-(Cyclopropylmethoxy)-5-(difluoromethyl)phenyl]-N-[(1S*,3R*,4S*)-3-fluoro-4-(propanoylamino)cyclohexyl]-6-methyl-5H-pyrrolo[3,2-d]pyrimidine-7-carboxamide], the IC50 was under 0.001 µM on PDE5A1 and under 0.1 µM at PDE4B1.

Turning to `COCC(=O)N[C@H]1CC[C@H](NC(=O)c2c(C)[nH]c3c(-c4cc(C(F)F)ccc4OCC4CC4)ncnc23)C[C@H]1F` (relative stereo) [Example P201, 4-[2-(Cyclopropylmethoxy)-5-(difluoromethyl)phenyl]-N-{(1S*,3R*,4S*)-3-fluoro-4-[(methoxyacetyl)amino]cyclohexyl}-6-methyl-5H-pyrrolo[3,2-d]pyrimidine-7-carboxamide], the IC50 was under 0.001 µM on PDE5A1 and under 0.1 µM at PDE4B1.

`CC(=O)N[C@H]1CC[C@H](NC(=O)c2c(C)[nH]c3c(-c4cc(C(F)F)ccc4OCC4CC4)ncnc23)C[C@@H]1F` (relative stereo) [Example P209, N-[(1S*,3S*,4S*)-4-(Acetylamino)-3-fluorocyclohexyl]-4-[2-(cyclopropylmethoxy)-5-(difluoromethyl)phenyl]-6-methyl-5H-pyrrolo[3,2-d]pyrimidine-7-carboxamide]: the IC50 on PDE5A1 was under 0.001 µM; on PDE4B1, under 0.1 µM.

Take `CCC(=O)N[C@H]1CC[C@H](NC(=O)c2c(C)[nH]c3c(-c4cc(C(F)F)ccc4OCC4CC4)ncnc23)C[C@@H]1F` (relative stereo) [Example P210, 4-[2-(Cyclopropylmethoxy)-5-(difluoromethyl)phenyl]-N-[(1S*,3S*,4S*)-3-fluoro-4-(propanoylamino)cyclohexyl]-6-methyl-5H-pyrrolo[3,2-d]pyrimidine-7-carboxamide]: the IC50 was under 0.001 µM at PDE5A1 and under 0.1 µM at PDE4B1.

As to `COCC(=O)N[C@H]1CC[C@H](NC(=O)c2c(C)[nH]c3c(-c4cc(C(F)F)ccc4OCC4CC4)ncnc23)C[C@@H]1F` (relative stereo) [Example P211, 4-[2-(Cyclopropylmethoxy)-5-(difluoromethyl)phenyl]-N-{(1S*,3S*,4S*)-3-fluoro-4-[(methoxyacetyl)amino]cyclohexyl}-6-methyl-5H-pyrrolo[3,2-d]pyrimidine-7-carboxamide], the results for the IC50 at PDE5A1 and on PDE4B1 were under 0.001 µM and under 0.1 µM, respectively.

In the case of `CC(=O)N1CCC(NC(=O)c2c(C)[nH]c3c(-c4cc(F)ccc4OCC4CC4)ncnc23)CC1` [Example E37, 4-(2-Cyclopropylmethoxy-5-fluoro-phenyl)-6-methyl-5H-pyrrolo[3,2-d]pyrimidine-7-carboxylic acid (1-acetyl-piperidin-4-yl)-amide], the IC50 at PDE5A1 is under 0.001 µM; on PDE4B1, 0.1 to 1 µM.

As to `CCC(=O)N1CCC(NC(=O)c2c(C)[nH]c3c(-c4cc(F)ccc4OCC4CC4)ncnc23)CC1` [Example E38, 4-[2-(cyclopropylmethoxy)-5-fluorophenyl]-6-methyl-N-(1-propionylpiperidin-4-yl)-5H-pyrrolo[3,2-d]pyrimidine-7-carboxamide], the IC50 on PDE5A1 was under 0.001 µM; at PDE4B1 it was 0.1 to 1 µM.

Regarding `COCC(=O)N1CCC(NC(=O)c2c(C)[nH]c3c(-c4cc(F)ccc4OCC4CC4)ncnc23)CC1` [Example E39, 4-(2-Cyclopropylmethoxy-5-fluoro-phenyl)-6-methyl-5H-pyrrolo[3,2-d]pyrimidine-7-carboxylic acid [1-(2-methoxy-acetyl)-piperidin-4-yl]-amide], the IC50 is 0.001 to 0.01 µM on PDE5A1 and 0.1 to 1 µM at PDE4B1.

As for `CCOC(=O)N1CCC(NC(=O)c2c(C)[nH]c3c(-c4cc(F)ccc4OCC4CC4)ncnc23)CC1` [Example E40, Ethyl 4-[({4-[2-(cyclopropylmethoxy)-5-fluorophenyl]-6-methyl-5H-pyrrolo[3,2-d]pyrimidin-7-yl}carbonyl)amino]piperidine-1-carboxylate], the IC50 at PDE5A1 is under 0.001 µM; on PDE4B1 it was 0.1 to 1 µM.

Turning to `CC(=O)N[C@H]1CC[C@H](NC(=O)c2c(C)[nH]c3c(-c4cc(F)ccc4OCC4CC4)ncnc23)CC1` [Example E41, N-(trans-4-acetamidocyclohexyl)-4-[2-(cyclopropylmethoxy)-5-fluorophenyl]-6-methyl-5H-pyrrolo[3,2-d]pyrimidine-7-carboxamide], the results for the IC50 at PDE5A1 and on PDE4B1 were under 0.001 µM and under 0.1 µM, respectively.

`CCC(=O)N[C@H]1CC[C@H](NC(=O)c2c(C)[nH]c3c(-c4cc(F)ccc4OCC4CC4)ncnc23)CC1` [Example E42, 4-[2-(Cyclopropylmethoxy)-5-fluorophenyl]-6-methyl-N-[trans-4-(propionylamino)cyclohexyl]-5H-pyrrolo[3,2-d]pyrimidine-7-carboxamide]: the IC50 at PDE5A1 is under 0.001 µM; on PDE4B1, under 0.1 µM.

Consider `COCC(=O)N[C@H]1CC[C@H](NC(=O)c2c(C)[nH]c3c(-c4cc(F)ccc4OCC4CC4)ncnc23)CC1` [Example E43, 4-[2-(Cyclopropylmethoxy)-5-fluorophenyl]-N-{trans-4-[(methoxyacetyl)amino]cyclohexyl}-6-methyl-5H-pyrrolo[3,2-d]pyrimidine-7-carboxamide], for which the IC50 at PDE5A1 is under 0.001 µM; at PDE4B1, under 0.1 µM.

On to `CCOC(=O)N[C@H]1CC[C@H](NC(=O)c2c(C)[nH]c3c(-c4cc(F)ccc4OCC4CC4)ncnc23)CC1` [Example E44, Ethyl {trans-4-[({4-[2-(cyclopropylmethoxy)-5-fluorophenyl]-6-methyl-5H-pyrrolo[3,2-d]pyrimidin-7-yl}carbonyl)amino]cyclohexyl}carbamate], for which the IC50 was under 0.001 µM on PDE5A1 and under 0.1 µM on PDE4B1.

Values taken from patent US9376442B2, “Methylpyrrolopyrimidinecarboxamides” (Takeda GmbH, priority 2009, dated 2016).
